Measured values published in US6897209B2, “Labelled factor XIIIa substrates” (GE Healthcare Limited, priority 1997, dated 2005).

Experiments:
human plasma clots [1] = molecular target: T1, human plasma clots (Homo sapiens, UniProt P00488); assay: Incorporation into human plasma clots (in vitro plasma clot assay); type: biochemical
T1 construct: Factor XIII is transformed into its active form Factor XIIIa by thrombin in the presence of calcium ions; from tissue; host or cells: human plasma, clotted in vitro with thrombin and calcium chloride
T1 sequence (P00488 39-732): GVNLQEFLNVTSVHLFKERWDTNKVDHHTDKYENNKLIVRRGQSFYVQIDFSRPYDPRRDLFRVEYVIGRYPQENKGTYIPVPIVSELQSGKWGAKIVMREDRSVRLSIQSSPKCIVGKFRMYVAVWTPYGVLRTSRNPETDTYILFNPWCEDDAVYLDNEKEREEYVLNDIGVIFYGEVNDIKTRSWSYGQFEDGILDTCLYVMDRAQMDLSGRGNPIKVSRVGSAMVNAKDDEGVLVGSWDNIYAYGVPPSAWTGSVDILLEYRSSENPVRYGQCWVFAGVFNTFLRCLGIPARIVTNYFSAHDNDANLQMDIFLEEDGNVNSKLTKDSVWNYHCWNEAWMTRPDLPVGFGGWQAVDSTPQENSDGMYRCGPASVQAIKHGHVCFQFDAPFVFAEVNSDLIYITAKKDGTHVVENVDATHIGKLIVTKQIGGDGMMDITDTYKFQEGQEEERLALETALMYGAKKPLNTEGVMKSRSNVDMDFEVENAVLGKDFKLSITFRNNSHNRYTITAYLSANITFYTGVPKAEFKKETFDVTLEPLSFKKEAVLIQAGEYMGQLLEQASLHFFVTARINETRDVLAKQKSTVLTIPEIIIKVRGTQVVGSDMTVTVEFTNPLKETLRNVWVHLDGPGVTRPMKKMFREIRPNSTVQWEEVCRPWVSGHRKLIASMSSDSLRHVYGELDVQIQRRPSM
Method: (§1) Incorporation of radiolabelled substrates into fibrin was investigated by induction of an in vitro human plasma clot in the following manner. To a siliconised 5 ml glass vial was added, (a) 800 μl of Tris(hydroxymethyl)aminomethane buffered saline pH 7.5 containing calcium chloride (50 mM Tris, 150 mM sodium chloride, 4 mM calcium chloride.), (b) 40 μl of physiological salt solution containing 100 units of thrombin per ml, (c) 400 μl of human plasma containing the radiolabelled substrate at a concentration of typically 10 kBq/ml. To aid induction of clot a roughened glass rod was added to the reaction vial. Control vials were prepared similarly but with the omission of thrombin and calcium chloride.
(§2) The proportion of total radioactivity was calculated by counting in suitable detection apparatus.
(§3) The fraction of radioactivity retained on the filter, after subtraction of the non-specific binding determined from the control, is a measure of incorporation into the filtered clots.

human plasma clots [2] = assay: as above; type: biochemical; details: control vials without thrombin and calcium chloride, 60 minutes
Method: as §1, §2, §3

Factor XIIIa = molecular target: T2, Factor XIIIa (Homo sapiens, UniProt P00488); assay: Factor XIIIa dependency of incorporation (dimethylcasein uptake, normal vs Factor XIII deficient plasma); type: biochemical; details: 1 KBq/ml, 60 minutes; uptake in normal plasma minus Factor XIII deficient plasma
T2 construct: Factor XIII is transformed into its active form Factor XIIIa by thrombin in the presence of calcium ions; from tissue; host or cells: human plasma
T2 sequence (P00488 39-732 limits assumed): T1 sequence (P00488 39-732)
Method: The assay was changed by replacing the mercaptoethanol with aprotinin at a final concentration of 2 μg/ml, and dimethylcasein (DMC) was used instead of casein.

[3] = Normal rat biodistribution; type: in vivo; details: i.v., male Wistar rats, Mean±SD n=3
Method: The resolution of a clot image is dependant on the combination of rate of incorporation of the radiopharmaceutical and its blood/tissues clearance rate. For this reason the biodistribution of several compounds has been determined in rats. Male Wistar (100-150 g) rats were injected i.v. with 0.1-0.2 ml of radiolabelled tracer solution (8 MBq/ml) and dissected at different times post-injection. The % ID in each of the selected tissues was measured. Some animals were kept in metabolism cages to be able to determine the % ID excreted in urine and faeces. The dissection times used for the majority of the agents was 2, 15, 30, 60, 240 min. Data are shown as % ID, Mean±SD, (n=3).

[4] = test system: clots induced in rat inferior vena cava; assay: Incorporation into clots induced in a rat model (rat inferior vena cava model); type: in vivo; details: rat IVC model
Method: The rats (Male Wistar, 250-350 g) were anaesthetised with 15% urethane. After laparotomy, the vena cava was isolated and freed of surrounding fat tissue. […] The average weight of the clots formed in this model was around 27 mg, n=32, (5-50 mg range). The so compounds were injected 5 min post-induction. After 60 min the animals were sacrificed and the clot removed, weighed and counted. Other tissues e.g. blood, lung, heart, were also dissected and counted. The uptake of tracer into the clot was determined as the relative concentration (cpm/g of clot by dose/g animal ) and clot to background tissue.

[5] = compound injected 5 min post-induction, clot removed after 60 min

SMILES: CC(=NO)C(C)(C)NCC(C)(CNC(=O)CCCCCN)CNC(C)(C)C(C)=NO (stereo not drawn) [Compound 4, 3,3,6,9,9-pentamethyl-6-N-(6aminohexoyl)aminomethyl-4,8-diazaundecane-2,10-dione dioxime]
- % specific uptake* (human plasma clots [1]; % retained with thrombin − % retained no thrombin): 2.6%
- % retained in plasma clot assay (with thrombin) (human plasma clots [1]; human plasma with thrombin and calcium chloride, 60 minutes, ca. 20° C.): 3%
- % retained in plasma clot assay (no thrombin) (human plasma clots [2]): 0.4%
- % specific DMC casein uptake (Factor XIIIa): 2%
- % ID Blood ([3]; 2 min post-injection): 10.33 ± 1.2 % ID
- % ID GI Tract ([3]; 2 min post-injection): 13.6 ± 0.8 % ID
- % ID Heart ([3]; 2 min post-injection): 0.33 + 0.06 % ID
- % ID Kidney ([3]; 2 min post-injection): 8.34 ± 2.7 % ID
- % ID Liver ([3]; 2 min post-injection): 19.9 ± 0.87 % ID
- % ID Lung ([3]; 2 min post-injection): 1.08 ± 0.15 % ID
- % ID Muscle ([3]; 2 min post-injection): 22.6 ± 0.8 % ID
- % ID Urine ([3]; 2 min post-injection): 2.44 ± 1.68 % ID
- % ID Blood ([3]; 30 min post-injection): 0.98 ± 0.18 % ID
- % ID GI Tract ([3]; 30 min post-injection): 62.7 ± 2.7 % ID
- % ID Heart ([3]; 30 min post-injection): 0.04 + 0.02 % ID
- % ID Kidney ([3]; 30 min post-injection): 2.39 ± 0.81 % ID
- % ID Liver ([3]; 30 min post-injection): 5.06 ± 0.89 % ID
- % ID Lung ([3]; 30 min post-injection): 0.16 % ID
- % ID Muscle ([3]; 30 min post-injection): 5.27 ± 0.4 % ID
- % ID Urine ([3]; 30 min post-injection): 19.49 ± 1.96 % ID
- % ID Blood ([3]; 60 min post-injection): 0.43 ± 0.07 % ID
- % ID GI Tract ([3]; 60 min post-injection): 68.6 ± 0.4 % ID
- % ID Heart ([3]; 60 min post-injection): 0.02 + 0.02 % ID
- % ID Kidney ([3]; 60 min post-injection): 1.49 ± 0.04 % ID
- % ID Liver ([3]; 60 min post-injection): 5.3 ± 0.9 % ID
- % ID Lung ([3]; 60 min post-injection): 0.1 ± 0.04 % ID
- % ID Muscle ([3]; 60 min post-injection): 2.26 ± 0.05 % ID
- % ID Urine ([3]; 60 min post-injection): 18.81 ± 0.85 % ID
- % ID Blood ([3]; 240 min post-injection): 0.21 ± 0.08 % ID
- % ID GI Tract ([3]; 240 min post-injection): 70.1 ± 1.9 % ID
- % ID Heart ([3]; 240 min post-injection): 0.01 + 0.04 % ID
- % ID Kidney ([3]; 240 min post-injection): 1.51 ± 0.02 % ID
- % ID Liver ([3]; 240 min post-injection): 3.81 ± 0.92 % ID
- % ID Lung ([3]; 240 min post-injection): 0.06 ± 0.01 % ID
- % ID Muscle ([3]; 240 min post-injection): 1.94 ± 0.35 % ID
- % ID Urine ([3]; 240 min post-injection): 19.88 ± 3.03 % ID
- Clot/Blood ([4]; 60 min): 2.3
- Clot/Heart ([4]; 60 min): 4.0
- Clot/Liver ([4]; 60 min): 0.27
- Clot/Lung ([4]; 60 min): 2.7
- % ID/g (clot uptake) [4, 5]: 0.18 ± 0.06 % ID/g
- Relative conc (cpm/g of clot by dose/g animal) [4, 5]: 0.52 ± 0.2
